This experiment concerns the target T1, CCR(9) (Homo sapiens, UniProt P51686).
T1 construct: CCR(9)-expressing cells such as T cell line MOLT-4 cells; host or cells: MOLT-4 T cell line
T1 sequence (P51686 1-369): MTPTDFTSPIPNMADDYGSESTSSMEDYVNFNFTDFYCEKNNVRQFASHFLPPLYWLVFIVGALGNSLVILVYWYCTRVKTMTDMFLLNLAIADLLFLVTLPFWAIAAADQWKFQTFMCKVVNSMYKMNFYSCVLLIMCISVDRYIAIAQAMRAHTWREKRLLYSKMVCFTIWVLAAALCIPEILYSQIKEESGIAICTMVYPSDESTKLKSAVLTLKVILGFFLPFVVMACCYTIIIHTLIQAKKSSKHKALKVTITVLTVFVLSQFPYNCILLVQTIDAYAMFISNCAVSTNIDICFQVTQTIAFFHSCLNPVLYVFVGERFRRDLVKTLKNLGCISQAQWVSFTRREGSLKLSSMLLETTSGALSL
In words: calcium mobilization assay (FLIPR, MOLT-4 cells, hTECK). The conditions noted are these: read-out: CCR(9) Ca^2+. The format is cell-based. As to the method:
In calcium signaling assays used to determine the ability of a compound to interfere with binding between a chemokine receptor and a known chemokine ligand, chemokine receptor-expressing cells (CCR(9)-expressing cells such as T cell line MOLT-4 cells) are first incubated with a compound of interest, such as a potential chemokine antagonist, at increasing concentrations. The cell number can be from 10^5 to 5×10^6 cells per well in a 96-well microtiter plate. The concentration of the compound being tested may range from 0 to 100 μM. After a period of incubation (which can range from 5 to 60 minutes), the treated cells are placed in a Fluorometric Imaging Plate Reader (FLIPR®) (available from Molecular Devices Corp., Sunnyvale, Calif.) according to the manufacturer's instruction. The FLIPR® system is well known to those skilled in the art as a standard method of performing assays. The cells are then stimulated with an appropriate amount of the chemokine ligand (TECK for CCR(9)) at 5-100 nM final concentration, and the signal of intracellular calcium increase (also called calcium flux) is recorded. The efficacy of a compound as an inhibitor of binding between the chemokine and the ligand can be calculated as an IC50 (the concentration needed to cause 50% inhibition in signaling) or IC90 (at 90% inhibition).
MOLT-4 cells were obtained from the American Type Culture Collection (Manassas, Va.) and cultured in RPMI tissue culture medium supplemented with 10% fetal calf serum (FCS) in a humidified 5% CO2 incubator at 37° C. Recombinant human chemokine proteins TECK was obtained from R&D Systems (Minneapolis, Minn.). ChemoTX® chemotaxis microchambers were purchased from Neuro Probe (Gaithersburg, Md.). CyQUANT® cell proliferation kits were purchased from Molecular Probes (Eugene, Oreg.). Calcium indicator dye Fluo-4 AM was purchased from Molecular Devices (Mountain View, Calif.).
A cytoplasmic calcium mobilization assay was used to determine the efficacy of potential receptor antagonists at blocking the signals mediated through chemokine receptors, such as CCR(9). This assay was routinely performed using the Fluorescent Imaging Plate Reader (FLIPR, Molecular Devices). MOLT-4 cells were labeled with the fluorescent-indicator dye Fluo-4 (Molecular Devices) according to the manufacturer's directions. After labeling, the cells were collected by centrifugation (400×g for 5 min at room temperature) and resuspended in HBSS to a cell density of 2.5×10^6 cells/mL. Test compounds were prepared in 100% DMSO at 100× the final concentration; generally, a range of concentrations of each compound were tested, with final concentrations from 0.1 nM to 10,000 nM. Labeled cells (300 μL) were mixed with compound or an equal volume of DMSO (3 μL) in a 96-well plate; after thorough mixing, 50 μL of this cell/compound mixture was added to each of four wells of a 384-well FLIPR plate. The chemokine agonist (i.e., hTECK), prepared in HBSS at a 5× concentration of the previously determined EC^50 concentration, was added to each well and resulting changes in the fluorescent intensity, indicative of chemokine receptor-mediated signaling, were recorded on the FLIPR.
On the technique in general: Calcium flux is commonly read through the fluorescence of an indicator in the cells.

Structures are written as SMILES. Bounds are passed on as bounds.

In the case of `Cc1cc(NS(=O)(=O)c2ccc(C(C)(C)C)cc2)n(-c2ccc3ccccc3c2)n1`, the IC50 was less than 100 nM.
